Assay: Measurement of surface tension and critical micellar concentrations (rising drop tensiometer)
Assay type: physicochemical
Settings: for CMC: critical micellar concentration; for γcmc: surface tension at the CMC, rising drop
Experimental: Measurement of Surface Tension and Critical Micellar Concentrations The tensiometric measurements were carried out with a drop tensiometer operating by the method of the rising drop ([…] tensiometer, I.T. CONCEPT).

Molecule | CMC [µM] | γcmc [mN/m]
octadecyl betaine mesylate [Esters C18:0] | 800 | 37.2
CCCCCCCCCCCCOS(=O)(=O)[O-].[Na+] [SDS (C12), reference compound] | 8000 | 30.0
betainylaminooctadecane mesylate [Amides C18:0] | 140 | 36.0

Reference: patent US20070243321A1, “Aqueous Bitumen Emulsion” (Eiffage Travaux Publics, priority 2004, published 2007)
